# In PubChem BioAssay (NCI):
#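 Step 1: Grow cells in 96-well plates. Step 2: Expose to compound for 48 hours at 5 concentrations. Step 3: Interpolate endpoints linearly; if unreached, use highest concentration. TGI: total growth inhibition.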
# How the values were obtained:
# Test in all cases: NCI tumour cell line growth inhibition, 48 h
# [1] = test system: CCRF-CEM leukemia
# [2] = test system: HCT-15 colon
# [3] = test system: HL-60(TB) leukemia
# [4] = test system: MOLT-4 leukemia
# [5] = test system: SF-268 CNS
# [6] = test system: SK-OV-3 ovarian
# [7] = test system: SNB-75 CNS
# [8] = test system: SW-620 colon
# [9] = test system: DU-145 prostate
# [10] = test system: NCI/ADR-RES ovarian
SMILES,TGI [1] [µM],TGI [2] [µM],TGI [3] [µM],TGI [4] [µM],TGI [5] [µM],TGI [6] [µM],TGI [7] [µM],TGI [8] [µM],TGI [9] [µM],TGI [10] [µM]
Cc1cc2c(c(C(N)=O)c1C)-c1ccccc1C2=O,> 100,> 100,> 100,> 100,> 100,> 100,> 100,> 100,,
CC(C(=O)c1ccc(Cl)cc1)/C(=N/NC(=O)NN)C(=O)Nc1cccc(C(F)(F)F)c1 (stereo not drawn),> 100,> 100,> 100,> 100,> 100,> 100,> 100,> 100,,
Cc1ccccc1C1=[N+]([O-])c2ccc(Cl)cc2C1=O,12.5,31.9,6.22,24.3,33.1,52.6,40.3,40.9,,
COC(=O)/C([Se]c1c(C)cc(C)cc1C)=C(/[Se]c1c(C)cc(C)cc1C)C(=O)OC,> 100,> 100,> 100,> 100,> 100,> 100,> 100,> 100,,
CCC1CN2CCc3cc(OC)c(OC)cc3C2CC1CC1c2cc(OC)c(OC)cc2CCN1C(=O)C1CCCN1 (stereo not drawn),64.8,> 100,43.9,85.1,65.2,98.5,> 100,> 100,,
CCC(C)(O)c1cnc(CC(C)C)c(=O)n1O (stereo not drawn),54.1,> 100,,48.6,> 100,> 100,> 100,> 100,> 100,
COc1cc(/C=C2\[C@H]3c4c(c(OC)c(C)c(OC)c4OC)CC(C(=O)N2Cc2ccccc2)N3C)c(OC)c(C)c1OC,42.5,,36,56.9,61.3,92,82.7,41.5,,
CCOC(=O)NC(=O)c1cn(C2CCCCC2)c(=O)[nH]c1=O,> 100,> 100,> 100,> 100,> 100,> 100,,> 100,,
CC(C)CCC[C@@H](C)C1CCC2[C@@H]3CC=C4C[C@@H](C(=O)NCCN(C)C)CC[C@]4(C)C3CC[C@@]21C (stereo partly drawn),73.1,53.7,> 100,> 100,> 100,> 100,> 100,> 100,,
COc1c(C)n(CCO)ccc1=O,> 100,> 100,> 100,> 100,> 100,> 100,> 100,> 100,,
CN(C)CCNCCN,,> 100,> 100,> 100,> 100,> 100,,> 100,> 100,> 100
Nc1ccccc1C(=O)/C=C/c1c(O)ccc2ccccc12,> 100,> 100,> 100,> 100,> 100,> 100,> 100,> 100,,
CC1CC(O)C(=O)C(O[C@@H]2C[C@@H]3CC[C@@H]4[C@H](CC[C@]5(C)C(C6=CC(=O)OC6)CC[C@]45O)[C@@]3(C=O)C[C@H]2O)O1 (stereo partly drawn),,0.0716,0.155,0.0991,0.146,0.122,0.18,0.158,0.0237,0.0678
